Test results from ChEMBL document CHEMBL6078679, “Structure-Guided Discovery of Subtype Selective SIRT6 Inhibitors with a β-Carboline Skeleton for the Treatment of Breast Cancer” (J Med Chem, 2024).

Columns and labels:
[1] = molecular target: T1, NAD-dependent protein deacetylase sirtuin-1 (Homo sapiens, UniProt Q96EB6); assay: Inhibition of SIRT1 (unknown origin) deacetylation activity using Boc-Lys(Ac)-AMC as substrate incubated for 2 hrs by BioTek microplate reader analysis
T1 sequence (Q96EB6 whole entry): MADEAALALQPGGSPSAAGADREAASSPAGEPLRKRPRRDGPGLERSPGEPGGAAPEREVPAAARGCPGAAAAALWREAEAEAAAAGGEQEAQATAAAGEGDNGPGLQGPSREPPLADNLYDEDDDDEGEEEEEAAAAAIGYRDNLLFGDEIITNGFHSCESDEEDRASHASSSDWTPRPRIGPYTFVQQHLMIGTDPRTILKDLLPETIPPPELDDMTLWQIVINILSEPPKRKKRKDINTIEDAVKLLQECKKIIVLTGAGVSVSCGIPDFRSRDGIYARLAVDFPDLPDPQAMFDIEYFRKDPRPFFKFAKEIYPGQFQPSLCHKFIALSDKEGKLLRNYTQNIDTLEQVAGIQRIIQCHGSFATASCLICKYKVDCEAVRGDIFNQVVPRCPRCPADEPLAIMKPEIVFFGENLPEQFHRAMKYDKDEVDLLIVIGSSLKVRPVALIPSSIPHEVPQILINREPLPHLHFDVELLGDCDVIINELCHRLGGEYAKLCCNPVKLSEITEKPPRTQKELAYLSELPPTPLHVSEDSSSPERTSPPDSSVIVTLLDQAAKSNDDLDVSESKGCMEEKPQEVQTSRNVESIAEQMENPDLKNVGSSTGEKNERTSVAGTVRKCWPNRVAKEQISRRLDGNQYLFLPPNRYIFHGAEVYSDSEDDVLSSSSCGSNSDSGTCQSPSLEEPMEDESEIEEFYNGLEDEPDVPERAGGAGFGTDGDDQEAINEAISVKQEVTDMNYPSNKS

[2] = molecular target: T2, NAD-dependent protein deacetylase sirtuin-2 (Homo sapiens, UniProt Q8IXJ6); assay: Inhibition of SIRT2 (unknown origin) deacetylation activity using Boc-Lys(Ac)-AMC as substrate incubated for 2 hrs by BioTek microplate reader analysis
T2 sequence (Q8IXJ6 whole entry): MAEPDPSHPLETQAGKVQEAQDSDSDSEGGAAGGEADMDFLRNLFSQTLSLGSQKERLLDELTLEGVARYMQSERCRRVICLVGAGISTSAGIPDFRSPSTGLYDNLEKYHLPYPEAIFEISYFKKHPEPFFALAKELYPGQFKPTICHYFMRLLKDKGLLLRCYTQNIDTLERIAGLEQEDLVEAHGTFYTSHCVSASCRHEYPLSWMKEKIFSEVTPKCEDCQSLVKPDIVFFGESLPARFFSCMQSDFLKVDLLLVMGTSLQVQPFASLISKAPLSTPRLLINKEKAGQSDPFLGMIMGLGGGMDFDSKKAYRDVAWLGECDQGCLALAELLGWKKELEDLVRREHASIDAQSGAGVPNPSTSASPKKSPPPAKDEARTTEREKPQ

[3] = molecular target: T3, NAD-dependent protein lipoamidase sirtuin-4, mitochondrial (Homo sapiens, UniProt Q9Y6E7); assay: Inhibition of SIRT4 (unknown origin) deacetylation activity using Boc-Lys(Ac)-AMC as substrate incubated for 2 hrs by BioTek microplate reader analysis
T3 sequence (Q9Y6E7 whole entry): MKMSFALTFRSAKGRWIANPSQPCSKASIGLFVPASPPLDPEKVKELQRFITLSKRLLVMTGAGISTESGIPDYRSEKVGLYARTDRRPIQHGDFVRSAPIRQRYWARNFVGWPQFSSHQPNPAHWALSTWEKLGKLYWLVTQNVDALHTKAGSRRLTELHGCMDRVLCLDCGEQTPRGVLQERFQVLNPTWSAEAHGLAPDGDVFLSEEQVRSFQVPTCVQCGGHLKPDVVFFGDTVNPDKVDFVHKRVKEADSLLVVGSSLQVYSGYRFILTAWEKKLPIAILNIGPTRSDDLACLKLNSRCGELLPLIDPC

[4] = molecular target: NAD-dependent protein deacylase sirtuin-5, mitochondrial (Homo sapiens, UniProt Q9NXA8); assay: Inhibition of SIRT5 (unknown origin) deacetylation activity using Boc-Lys(Ac)-AMC as substrate incubated for 2 hrs by BioTek microplate reader analysis
Chain of NAD-dependent protein deacylase sirtuin-5, mitochondrial (Q9NXA8 whole entry): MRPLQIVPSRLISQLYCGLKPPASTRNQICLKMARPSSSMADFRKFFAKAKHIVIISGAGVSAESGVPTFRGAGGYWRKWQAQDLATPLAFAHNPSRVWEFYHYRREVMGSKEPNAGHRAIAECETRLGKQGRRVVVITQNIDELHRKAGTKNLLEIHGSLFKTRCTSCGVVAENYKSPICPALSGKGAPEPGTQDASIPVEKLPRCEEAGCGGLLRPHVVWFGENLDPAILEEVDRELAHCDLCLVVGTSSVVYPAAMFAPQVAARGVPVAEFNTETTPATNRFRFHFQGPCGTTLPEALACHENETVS

[5] = molecular target: T4, NAD-dependent protein deacetylase sirtuin-7 (Homo sapiens, UniProt Q9NRC8); assay: Inhibition of SIRT7 (unknown origin) deacetylation activity using Boc-Lys(Ac)-AMC as substrate incubated for 2 hrs by BioTek microplate reader analysis
T4 sequence (Q9NRC8 whole entry): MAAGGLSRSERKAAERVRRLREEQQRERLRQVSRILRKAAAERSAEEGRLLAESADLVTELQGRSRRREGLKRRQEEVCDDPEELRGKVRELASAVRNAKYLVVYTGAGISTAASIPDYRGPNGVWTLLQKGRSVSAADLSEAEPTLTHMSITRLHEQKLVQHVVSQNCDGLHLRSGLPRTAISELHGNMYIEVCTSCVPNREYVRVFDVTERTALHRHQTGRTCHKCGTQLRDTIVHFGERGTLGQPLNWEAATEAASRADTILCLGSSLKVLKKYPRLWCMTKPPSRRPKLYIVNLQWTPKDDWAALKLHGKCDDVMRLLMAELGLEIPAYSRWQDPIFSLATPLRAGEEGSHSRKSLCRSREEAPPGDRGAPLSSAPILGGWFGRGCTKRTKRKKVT

[6] = molecular target: T5, NAD-dependent protein deacetylase sirtuin-3, mitochondrial (Homo sapiens, UniProt Q9NTG7); assay: Inhibition of full length N-terminal his-tagged SIRT3 (unknown origin) deacetylation activity expressed in Escherichia coli BL21 (DE3) using RHKK-Ac-AMC as substrate incubated for 2 hrs by FDL analysis relative to control
T5 sequence (Q9NTG7 whole entry): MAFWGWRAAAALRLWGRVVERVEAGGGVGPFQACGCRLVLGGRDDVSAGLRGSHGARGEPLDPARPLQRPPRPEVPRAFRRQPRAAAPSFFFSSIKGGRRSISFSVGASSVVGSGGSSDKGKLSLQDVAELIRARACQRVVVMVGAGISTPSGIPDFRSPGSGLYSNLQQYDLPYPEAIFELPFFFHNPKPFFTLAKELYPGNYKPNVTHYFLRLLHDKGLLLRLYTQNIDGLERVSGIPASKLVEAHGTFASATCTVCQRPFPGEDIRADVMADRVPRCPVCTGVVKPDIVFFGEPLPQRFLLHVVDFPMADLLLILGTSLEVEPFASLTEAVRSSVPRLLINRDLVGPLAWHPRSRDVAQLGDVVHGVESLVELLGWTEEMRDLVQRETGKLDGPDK

SMILES | IC50 [1] | IC50 [2] | IC50 [3] | IC50 [4] | IC50 [5] | IC50 [6]
N#Cc1ccc(Cn2c3ccc(Cl)cc3c3cc(C(=O)NCc4ccccn4)ncc32)cc1 | 312 µM | 157 µM | 274 µM | > 500 µM | > 500 µM | 
CC(/C=C/C(=O)NO)=C\[C@@H](C)C(=O)c1ccc(N(C)C)cc1 [TRICHOSTATIN] |  |  |  |  |  | 7.88 µM
COC(=O)c1cc2c(cn1)[nH]c1ccccc12 [BETA-CCM] |  |  |  |  |  | > 100 µM
